Laboratory results: patent US6664069B1, “Use of GABAB receptor agonists in the screening of compounds which are reflux inhibitors” (AstraZeneca AB, priority 1996, dated 2003)

Tested on: transient lower esophageal sphincter relaxations (TLESR)
Test: Effect of GABAB receptor agonists on TLESR in dog after nutrient infusion and air insufflation
Assay type: in vivo
Conditions: for TLESR % of control at 90 min / TLESR % of control at 45 min: mean ± SEM; for TLESR % of control at 45 min: first 45 min
Procedure: Adult Labrador retriever dogs of both sexes (5 males, 3 females) weighing 20-30 kg were used. A cervical esophagostomy was formed to allow intubation. After a recovery period, the dogs were used in control experiments until a stable and reliable control response had been achieved. The dogs were used in other experiments before they were given the GABAB receptor agonists, but they were always allowed a wash-out period of at least two days during which time no drugs were administered. Every fourth experiment on each dog was a control experiment to ensure stability and reproducibility of the results.
The experiments were started at about 8 a.m. at which time the animals had been fasting for approximately 17 hrs. The dog was placed in a Pavlov stand to which it had been accustomed previously. A thin silicone catheter with a distal opening was introduced retrogradely through the esophagostomy into the pharynx to record swallowing. The catheter was perfused with air at approximately 2 ml/min. A multilumen assembly was positioned so that pressures could be recorded in the proximal stomach, LES and at four sites in the distal esophagus. The assembly was fitted with a 6 cm long sleeve to measure LES pressure reliably. Gastric and LES channels were perfused with distilled degassed water at 0.45 ml/min and esophageal channels at 0.1 ml/min. A low-compliance pneumohydraulic pump was used to achieve optimal perfusion conditions. Intraluminal pressures were measured with external pressure transducers. The signals were amplified and acquired using LabWindows/CVI software (version 3.1). Pressure calibrations were done at 0 and 100 mm Hg with the multilumen assemblies placed at a level slightly below the pressure transducers. The dog was positioned so that the average intragastric (i.g.) pressure approximated 0 mm Hg. An antimony pH-electrode was positioned 3 cm orad to the upper margin of the LES, and the signals were acquired as described above. Analysis of acquired signals was made using LabWindows software.
Baseline measurement was done for at least 10 min, and then vehicle (0.9% NaCl; 0.5 ml/kg) or a GABAB receptor agonist was given i.v. over 2 min. Ten min after the completion of the administration, nutrient was infused i.g. via the multilumen assembly at a rate of 100 ml/min (30 ml/kg). GABA was given as a continuous i.v. infusion which commenced 10 min before nutrient administration; and R, S,-baclofen was in some cases given intragastrically 30 min before nutrient. The nutrient contained 10% peptone (w/v), 5% Intralipid (v/v) and 5% D-glucose (w/v) and was acidified to pH 3.0 with HCl. Immediately after the infusion, air was insufflated at 40 ml/min to make up a total time of 90 min starting from the commencement of nutrient infusion. The dog was then extubated and a baseline measurement was done to ensure that no drift had occurred.
A TLESR was identified by the following criteria; The difference between LES and i.g. pressures was less than 2 mm Hg, the duration was more than 0.5 s and the relaxation was not triggered by primary peristalsis (i.e. by a pharyngeal signal). The rate of pressure drop was more than 10 mm Hg/s. Most, but not all, TLESR could also be detected aurally by a characteristic noise at the esophagostomy (i.e. belching). The total number of TLESR was calculated for the first 45 min period and entire experiment (90 min). The effect of GABAB receptor agonists was expressed relative to individual control data (n≧5). Each agonist was tested in at least two different dogs.

[1] = 1.5 mg/kg intragastric admin. 30 min before nutrient
[2] = 1.8 mg/kg as intravenous infusion over 100 min
[3] = 5.4 mg/kg as intravenous infusion over 100 min

Row | SMILES | TLESR % of control at 90 min (0.3 mg/kg intravenously) | TLESR % of control at 45 min (0.3 mg/kg intravenously) | TLESR % of control at 90 min (0.03 mg/kg intravenously) | TLESR % of control at 45 min (0.03 mg/kg intravenously) | TLESR % of control at 90 min (1.5 mg/kg intravenously) | TLESR % of control at 45 min (1.5 mg/kg intravenously) | other results
1 | NC[C@H](CC(=O)O)c1ccc(Cl)cc1 [R-baclofen] | 40 ± 11 % of control | 36 ± 10 % of control |  |  |  |  | 
2 | CP(=O)(O)CCCN [(3-aminopropyl)methylphosphinic acid] |  |  | 50 ± 17 % of control | 25 ± 4 % of control |  |  | TLESR % of control at 90 min (0.003 mg/kg intravenously): 76 ± 5 % of control; TLESR % of control at 45 min (0.003 mg/kg intravenously): 57 ± 12 % of control; TLESR % of control at 90 min (0.01 mg/kg intravenously): 39 ± 7 % of control; TLESR % of control at 45 min (0.01 mg/kg intravenously): 32 ± 8 % of control; TLESR % of control at 90 min (0.1 mg/kg intravenously): 33 ± 9 % of control; TLESR % of control at 45 min (0.1 mg/kg intravenously): 5 ± 5 % of control
3 | NC[C@@H](CC(=O)O)c1ccc(Cl)cc1 [S-baclofen] |  |  |  |  | 92 ± 10 % of control | 76 ± 10 % of control | 
4 | CP(=O)(O)C[C@@H](O)CN [(3-amino-2-(S)-hydroxypropyl)methylphosphinic acid] | 38 ± 6 % of control | 0 ± 0 % of control | 65 ± 10 % of control | 53 ± 7 % of control |  |  | 
5 | NCC(CC(=O)O)c1ccc(Cl)cc1 (racemic) [R, S-baclofen, 4-amino-3-(4-chlorophenyl)butanoic acid] | 66 ± 8 % of control | 47 ± 6 % of control |  |  | 43 ± 19 % of control | 11 ± 6 % of control | TLESR % of control at 90 min [1]: 54 ± 12 % of control; TLESR % of control at 45 min [1]: 12 ± 6 % of control; behavioural side effects (high R,S-baclofen dose, disappeared approximately one hour after the administration): some sedation
6 | NCCCC(=O)O [GABA, 4-aminobutanoic acid] |  |  |  |  |  |  | TLESR % of control at 90 min [2]: 61 ± 3 % of control; TLESR % of control at 45 min [2]: 62 ± 2 % of control; TLESR % of control at 90 min [3]: 54 ± 10 % of control; TLESR % of control at 45 min [3]: 57 ± 6 % of control
